Data: US7429578B2, “Tricyclic inhibitors of poly(ADP-ribose) polymerases” (Agouron Pharmaceuticals, Inc., priority 1999, dated 2008)
Several values for one entry are separate records, joined by “and”; a condition that tells them apart may be missing. Equal values may be shown once.

Legend:
purified PARP protein = purified PARP protein (Homo sapiens, UniProt P09874); experiment: PARP enzyme inhibition assay; assay type: biochemical; conditions: [32P]NAD+ incorporation, 500 μM NAD+, 25° C.; two values in a cell = tested twice; read-out: Inhibition Constant Ki
Sequence of purified PARP protein (P09874 whole entry): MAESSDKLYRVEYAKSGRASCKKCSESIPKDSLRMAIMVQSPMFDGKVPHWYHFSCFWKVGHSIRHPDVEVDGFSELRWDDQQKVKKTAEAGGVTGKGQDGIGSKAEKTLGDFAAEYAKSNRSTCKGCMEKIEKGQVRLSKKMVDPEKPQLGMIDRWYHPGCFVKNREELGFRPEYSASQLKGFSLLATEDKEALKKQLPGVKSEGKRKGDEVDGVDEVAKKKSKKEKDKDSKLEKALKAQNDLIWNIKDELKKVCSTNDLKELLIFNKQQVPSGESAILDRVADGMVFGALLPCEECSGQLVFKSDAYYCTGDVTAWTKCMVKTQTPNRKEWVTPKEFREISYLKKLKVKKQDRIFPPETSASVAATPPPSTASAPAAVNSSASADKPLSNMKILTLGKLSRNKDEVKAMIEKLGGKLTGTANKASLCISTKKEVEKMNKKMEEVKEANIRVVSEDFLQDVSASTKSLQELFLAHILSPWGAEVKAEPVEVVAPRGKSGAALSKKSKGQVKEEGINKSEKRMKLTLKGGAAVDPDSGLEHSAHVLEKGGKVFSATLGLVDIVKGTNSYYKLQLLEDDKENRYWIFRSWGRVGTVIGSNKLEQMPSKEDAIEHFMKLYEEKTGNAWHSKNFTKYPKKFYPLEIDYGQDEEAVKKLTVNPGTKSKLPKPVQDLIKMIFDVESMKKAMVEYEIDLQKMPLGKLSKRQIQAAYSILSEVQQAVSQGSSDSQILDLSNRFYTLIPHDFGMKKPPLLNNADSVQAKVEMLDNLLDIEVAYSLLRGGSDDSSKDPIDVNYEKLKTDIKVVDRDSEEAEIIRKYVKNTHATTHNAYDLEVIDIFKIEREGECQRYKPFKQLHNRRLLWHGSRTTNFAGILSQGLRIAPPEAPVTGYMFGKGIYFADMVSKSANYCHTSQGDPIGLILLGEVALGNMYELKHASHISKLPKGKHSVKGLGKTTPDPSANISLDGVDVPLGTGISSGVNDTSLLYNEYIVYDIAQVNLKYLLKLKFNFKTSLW

SMILES | melting point | Ki (purified PARP protein)
CC(=O)Nc1cccc(-c2[nH]c3cccc4c3c2CCNC4=O)c1 [Compound TT, N-[3-(6-Oxo-3,4,5,6-tetrahydro-1H-azepino[5,4,3-cd]indol-2-yl)-phenyl]-acetamide] | 300.5 to 302 °C | 12.2 nM and 4.2 nM
CCN(CC)CCc1ccc(-c2[nH]c3cccc4c3c2CCNC4=O)cc1 [Compound YY, 2-[4-(2-Diethylamino-ethyl)-phenyl]-3,4,5,6-tetrahydro-azepino[5,4,3-cd]indol-6-one] | 224 to 224.5 °C (dec.) | 15.1 nM
O=C1NCCc2c(-c3ccccc3O)[nH]c3cccc1c23 [DDD, 2-(2-Hydroxy-phenyl)-1,3,4,5-tetrahydro-azepino[5,4,3-cd]indol-6-one] | 305 °C (dec.) | 23 nM
N#Cc1[nH]c2cccc3c2c1CCNC3=O [EEE, 6-Oxo-3,4,5,6-tetrahydro-1H-azepino[5,4,3-cd]indole-2-carbonitrile] | 315 °C (dec.) | 10.6 nM
CSc1ccc(-c2[nH]c3cccc4c3c2CCNC4=O)cc1 [EEEE, 2-(4-Methylsulfanyl-phenyl)-1,3,4,5-tetrahydro-azepino[5,4,3-cd]indol-6-one] | 250 to 251 °C | 2.9 nM
CCCCCCCCOC(=O)c1[nH]c2cccc3c2c1CCNC3=O [FFF, 6-Oxo-3,4,5,6-tetrahydro-1H-azepino[5,4,3-cd]indole-2-carboxylic acid octyl ester] | 170 to 171 °C | 125 nM
C[S+]([O-])c1ccc(-c2[nH]c3cccc4c3c2CCNC4=O)cc1 (centres unmarked) [FFFF, 2-(4-Methanesulfinyl-phenyl)-1,3,4,5-tetrahydro-azepino[5,4,3-cd]indol-6-one] | 316 to 317 °C (dec.) | 4.7 nM
CS(=O)(=O)c1ccc(-c2[nH]c3cccc4c3c2CCNC4=O)cc1 [GGGG, 2-(4-Methanesulfonyl-phenyl)-1,3,4,5-tetrahydro-azepino[5,4,3-cd]indol-6-one] | 308 to 309 °C (dec.) | 6.2 nM
COc1ccccc1-c1[nH]c2cccc3c2c1CCNC3=O [III, 2-(2-Methoxy-phenyl)-1,3,4,5-tetrahydro-azepino[5,4,3-cd]indol-6-one] | 254 to 255 °C | 40 nM
O=C1NCCc2c(-c3ccncc3)[nH]c3cccc1c23 [JJJ, 2-Pyridin-4-yl-1,3,4,5-tetrahydro-azepino[5,4,3-cd]indol-6-one] | 250 °C (dec.) | 5.3 nM
CSc1ccccc1-c1[nH]c2cccc3c2c1CCNC3=O [LLL, 2-(2-Methylsulfanyl-phenyl)-1,3,4,5-tetrahydro-azepino[5,4,3-cd]indol-6-one] | 271 to 272 °C | 32 nM
O=C(Nc1cccc2ccccc12)c1[nH]c2cccc3c2c1CCNC3=O [NNNN, 6-Oxo-1,3,4,5-tetrahydro-1H-azepino[5,4,3-cd]indole-2-carboxylic Acid naphthalen-1-ylamide] | 330 to 332 °C (dec.) | 10 nM
CNC(=O)c1[nH]c2cccc3c2c1CCNC3=O [OOO, 6-Oxo-3,4,5,6-tetrahydro-1H-azepino[5,4,3-cd]indole-2-carboxylic acid methylamide] | 321 to 322 °C (dec.) | 14 nM
C#CCNC(=O)c1[nH]c2cccc3c2c1CCNC3=O [OOOO, 6-Oxo-1,3,4,5-tetrahydro-1H-azepino[5,4,3-cd]indole-2-carboxylic acid prop-2-ynylamide] | 191 to 192 °C | 13 nM
CC(C)NC(=O)c1[nH]c2cccc3c2c1CCNC3=O [PPPP, 6-Oxo-1,3,4,5-tetrahydro-1H-azepino[5,4,3-cd]indole-2-carboxylic acid isopropylamide] | 261 to 262 °C (dec.) | 32 nM
CC1=NNC(=O)c2cccc3[nH]cc1c23 [QQ, 1,5-Dihydro-3-methyl-[1,2]diazepino[4,5,6-cd]-indol-6-one] | 335 to 336 °C | 5.5 nM and 4.5 nM
